Molecular target: T1, CsAFS (α-farnesene synthase) (Camellia sinensis, UniProt A0A3G3IRF8)
T1 construct: full-length ORF cloned in pET32a (EcoRV/SalI); cloning primers encode N-terminus MDCSKGML and C-terminus LIEPLKIN
T1 sequence (A0A3G3IRF8 1-560): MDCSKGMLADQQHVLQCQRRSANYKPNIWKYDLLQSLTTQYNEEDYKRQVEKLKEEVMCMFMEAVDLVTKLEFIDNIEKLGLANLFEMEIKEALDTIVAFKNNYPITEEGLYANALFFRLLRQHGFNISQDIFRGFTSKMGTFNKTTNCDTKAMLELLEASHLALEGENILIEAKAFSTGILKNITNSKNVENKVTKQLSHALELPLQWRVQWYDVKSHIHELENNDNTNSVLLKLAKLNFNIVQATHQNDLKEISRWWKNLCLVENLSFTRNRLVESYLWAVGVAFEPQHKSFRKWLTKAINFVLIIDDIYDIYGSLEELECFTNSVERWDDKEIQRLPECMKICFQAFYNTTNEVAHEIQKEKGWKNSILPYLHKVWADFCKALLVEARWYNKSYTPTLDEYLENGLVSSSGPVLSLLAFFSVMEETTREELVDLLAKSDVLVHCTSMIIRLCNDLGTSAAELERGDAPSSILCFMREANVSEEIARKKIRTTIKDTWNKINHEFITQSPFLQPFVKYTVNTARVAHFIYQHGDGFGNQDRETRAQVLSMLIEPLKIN
Experiment: SPME GC-MS product analysis
Type: biochemical
Settings: 15 µg protein in 1 mL, 10 mM MgCl2, 1 mM MnCl2, 500 mM KCl, pH 7.0, 30 °C, 1 h

| Compound | SPME GC-MS product analysis (product α-farnesene) | SPME GC-MS product analysis (product β-ocimene) |
| --- | --- | --- |
| CC(C)=CCC/C(C)=C/CC/C(C)=C/COP(=O)(O)OP(=O)(O)O [farnesyl diphosphate] | recombinant protein CsAFS converted substrate farnesyl diphosphate (FPP) into α-farnesene as the final product | – |
| CC(C)=CCC/C(C)=C/COP(=O)(O)OP(=O)(O)O [geranyl diphosphate] | – | with geranyl diphosphate (GPP) as substrate, the CsAFS enzyme produced only β-ocimene |
